System: Caucasian patients with schizophrenia (CATIE)
Assay: Genetic association (linear regression, additive model) of SNP alleles with MMRM-modelled change in PANSS Total Score under antipsychotic treatment, CATIE trial
Assay type: in vivo, human
Protocol: For the CATIE study, individual cases were diagnosed as having SZ based on DSM-III/IV criteria. Treatment response for all patients was assessed using the Positive and Negative Syndrome Scale (PANSS) (Kay et al., 1987; Kay et al., 1989; Leucht et al., 2005). […] To avoid possible bias in post hoc selection of a treatment response variable, the inventors used the mixed model repeated measures (MMRM) approach developed by van den Oord and coworkers (van den Oord et al., 2009). […] The design of the CATIE study, including details of consent for genetic analyses, has been described in detail by others (Lieberman et al., 2005; Stroup et al., 2003; Sullivan et al., 2008). Only retrospective genetic analyses, judged to be exempt from human studies requirements by an IRB, were conducted in the current study. Consented DNA samples were obtained from the Rutgers University Cell and DNA Repository in collaboration with […]. […] All of these patients self-reported as having exclusively European ancestry. […] Genotyping was performed on a fee for service basis according to Illumina's standard operating procedures. Raw intensity files were processed using Illumina® BeadStudio version 1.7.4 software. […] Only two of these had been previously genotyped in the CATIE sample. […] To allow comparison to previously published PGx findings for CATIE and to avoid possible bias in post-hoc selection of a treatment response variable, the inventors used the mixed model repeated measures (MMRM) approach developed by Van den Oord and coworkers (van den Oord et al., 2009; […] et al., 2011). Briefly, this method models random effects by introducing random slopes for treatment effects, allowing treatment effects to be different across subjects. The MMRM approach serves to increase the statistical power to detect genetic associations by increasing the precision in measuring change in PANSS Total Score (PANSS-T) by accounting for variance due to baseline PANSS-T, and treatment, as well as smoothing out the random fluctuations in PANSS-T between visits due to various uncontrolled variables. […] Bozeman, Mont.). Quantile-Quantile (QQ) plots were prepared using the R statistical package version 2.14.1. For comparison purposes, original CATIE-provided SNP genotypes in specific genes were evaluated using the same genetic analysis. Haplotype association integrating newly generated and original genotypes for specific regions was carried out in SVS using haplotype blocks predefined by Haploview software. […] For each of the SNPs listed the reference SNP (rs) number is provided, which provides the known sequence context for the given SNP (see, e.g., National Center for Biotechnology Information (NCBI) SNP database available on the world wide web at ncbi.nlm.nih.gov/snp).

Cc1cc2c(s1)Nc1ccccc1N=C2N1CCN(C)CC1 [Olanzapine, olanzapine]
Beta (PANSS) (ADAMTS9-AS2 rs17071651 allele C): −3.03 PANSS
Beta (PANSS) (AGAP1 rs4663220 allele T): −3.07 PANSS
Beta (PANSS) (ANK3 rs2893823 allele A): −4.47 PANSS
Beta (PANSS) (ANK3 rs10821660 allele G): −4.45 PANSS
Beta (PANSS) (APCDD1 rs1045584 allele G): −3.41 PANSS
Beta (PANSS) (ARHGAP31 rs751607 allele A): −4.30 PANSS
Beta (PANSS) (ARVCF rs2238794 allele C): −3.11 PANSS
Beta (PANSS) (ATP10A rs2291351 allele A): −4.99 PANSS
Beta (PANSS) (BIK rs5996274 allele A): −4.94 PANSS
Beta (PANSS) (CA10 rs741682 allele A): −5.58 PANSS
Beta (PANSS) (CACNA1B rs12352971 allele G): −4.21 PANSS
Beta (PANSS) (CACNG4 rs7219571 allele A): −5.84 PANSS
Beta (PANSS) (CAMK2D rs13113625 allele C): −3.68 PANSS
Beta (PANSS) (CDH13 rs3743621 allele C): −5.54 PANSS
Beta (PANSS) (CLIC5 rs35822882 allele G): −14.90 PANSS
Beta (PANSS) (CNTN4 rs1554561 allele T): −4.50 PANSS
Beta (PANSS) (CNTN4 rs4685501 allele T): −4.63 PANSS
Beta (PANSS) (CPNE5 rs12194367 allele T): −3.14 PANSS
Beta (PANSS) (CSMD1 rs2724972 allele G): −4.69 PANSS
Beta (PANSS) (CSMD1 rs7815861 allele C): −5.06 PANSS
Beta (PANSS) (DLGAP1 rs498419 allele A): −3.07 PANSS
Beta (PANSS) (DLGAP1 rs561434 allele A): −4.43 PANSS
Beta (PANSS) (EHD4 rs1048166 allele C): −3.04 PANSS
Beta (PANSS) (EHD4 rs1048175 allele C): −3.04 PANSS
Beta (PANSS) (EML1 rs34198557 allele C): −4.01 PANSS
Beta (PANSS) (ERBB4 rs7565257 allele A): −3.44 PANSS
Beta (PANSS) (ERG rs9981408 allele G): −3.15 PANSS
Beta (PANSS) (EXOC2 rs9405889 allele C): −3.21 PANSS
Beta (PANSS) (FAM170A rs2162856 allele A): −3.06 PANSS
Beta (PANSS) (FAM173B rs12652786 allele C): −3.39 PANSS
Beta (PANSS) (FBN3 rs2287937 allele C): −5.34 PANSS
Beta (PANSS) (FGF14 rs2390674 allele A): −4.22 PANSS
Beta (PANSS) (FHIT rs971866 allele A): −5.07 PANSS
Beta (PANSS) (FMNL2 rs4664113 allele C): −4.25 PANSS
Beta (PANSS) (FSTL5 rs13127909 allele C): −4.60 PANSS
Beta (PANSS) (GAN rs1345895 allele A): −3.53 PANSS
Beta (PANSS) (GAS7 rs9904524 allele G): −4.96 PANSS
Beta (PANSS) (GPC6 rs9301876 allele A): −4.68 PANSS
Beta (PANSS) (GRM8 rs17865066 allele A): −7.97 PANSS
Beta (PANSS) (GRM8 rs17865434 allele C): −7.97 PANSS
Beta (PANSS) (HTR1B rs11568817 allele G): −3.16 PANSS
Beta (PANSS) (IFT74 rs4463511 allele C): −3.77 PANSS
Beta (PANSS) (IL1RAP rs2361835 allele A): −3.93 PANSS
Beta (PANSS) (IL1RAP rs7642607 allele A): −3.93 PANSS
Beta (PANSS) (IL1RAP rs7642797 allele A): −3.93 PANSS
Beta (PANSS) (IL15 rs3806798 allele A): −4.33 PANSS
Beta (PANSS) (ITPR1 rs11717244 allele C): −3.53 PANSS
Beta (PANSS) (JPH2 rs2064381 allele A): −3.06 PANSS
Beta (PANSS) (KAZN rs12130605 allele C): −3.66 PANSS
Beta (PANSS) (KCND2 rs718805 allele A): −5.26 PANSS
Beta (PANSS) (KCND2 rs10953911 allele G): −5.26 PANSS
Beta (PANSS) (KCND2 rs11765060 allele C): −5.30 PANSS
Beta (PANSS) (KCNH1 rs4282878 allele C): −3.08 PANSS
Beta (PANSS) (KDM4C rs35389625 allele C): −11.20 PANSS
Beta (PANSS) (KITLG rs995029 allele C): −7.22 PANSS
Beta (PANSS) (LDB2 rs872478 allele C): −3.53 PANSS
Beta (PANSS) (LRP1B rs4591293 allele A): −3.04 PANSS
Beta (PANSS) (MACROD2 rs461651 allele A): −3.59 PANSS
Beta (PANSS) (MACROD2 rs6079429 allele A): −4.72 PANSS
Beta (PANSS) (MAGI2 rs848813 allele C): −4.34 PANSS
Beta (PANSS) (MAGI2 rs12705833 allele G): −2.87 PANSS
Beta (PANSS) (MCPH1 rs930557 allele C): −3.78 PANSS
Beta (PANSS) (MEPE rs3749575 allele A): −8.95 PANSS
Beta (PANSS) (MTIF3 rs12585587 allele A): −4.37 PANSS
Beta (PANSS) (NAB1 rs2293765 allele A): −4.60 PANSS
Beta (PANSS) (NELL1 rs4244549 allele C): −4.96 PANSS
Beta (PANSS) (NRXN1 rs11885824 allele A): −5.21 PANSS
Beta (PANSS) (NTRK2 rs1490403 allele A): −3.10 PANSS
Beta (PANSS) (NTRK2 rs1490407 allele G): −3.00 PANSS
Beta (PANSS) (NTRK2 rs4142909 allele C): −3.81 PANSS
Beta (PANSS) (NTSR2 rs7602721 allele C): −4.08 PANSS
Beta (PANSS) (PARD3B rs17283257 allele A): −3.82 PANSS
Beta (PANSS) (PCDH15 rs10825137 allele A): −4.89 PANSS
Beta (PANSS) (PCDH17 rs7319102 allele A): −3.47 PANSS
Beta (PANSS) (PCP4L1 rs6671288 allele C): −4.15 PANSS
Beta (PANSS) (PDGFD, DDI1 rs2279789 allele C): −4.42 PANSS
Beta (PANSS) (PEBP4 rs13271643 allele C): −5.41 PANSS
Beta (PANSS) (PI4KA, SERPIND1 rs78656 allele C): −7.22 PANSS
Beta (PANSS) (PKNOX2 rs1044314 allele G): −4.14 PANSS
Beta (PANSS) (PKP4 rs11680160 allele A): −4.33 PANSS
Beta (PANSS) (PRDM2 rs6429793 allele A): −3.13 PANSS
Beta (PANSS) (PSD3 rs7016207 allele C): −6.20 PANSS
Beta (PANSS) (PTPRT rs6030084 allele A): −2.96 PANSS
Beta (PANSS) (RASGEF1C rs2278661 allele C): −3.04 PANSS
Beta (PANSS) (RBFOX1 rs7194775 allele C): −4.37 PANSS
Beta (PANSS) (RIMS1 rs9446639 allele C): −3.56 PANSS
Beta (PANSS) (RNF144A rs7605141 allele C): −4.00 PANSS
Beta (PANSS) (ROBO2 rs4343667 allele C): −4.96 PANSS
Beta (PANSS) (RORA rs12910376 allele C): −3.38 PANSS
Beta (PANSS) (SCN3A rs10048748 allele C): −5.44 PANSS
Beta (PANSS) (SEC16B rs16852158 allele C): −6.45 PANSS
Beta (PANSS) (SGCZ rs10503525 allele C): −3.05 PANSS
Beta (PANSS) (SGCZ rs13278000 allele A): −2.91 PANSS
Beta (PANSS) (SLC6A5 rs1443547 allele A): −3.31 PANSS
Beta (PANSS) (SLC16A4 rs12126959 allele A): −4.16 PANSS
Beta (PANSS) (SLC16A9 rs16913940 allele A): −6.05 PANSS
Beta (PANSS) (SLC35F3 rs12759054 allele C): −3.34 PANSS
Beta (PANSS) (SPOCK1 rs1051854 allele G): −6.02 PANSS
Beta (PANSS) (WDR90 rs1057835 allele A): −3.10 PANSS
Beta (PANSS) (ZNF169 rs9409514 allele C): −3.04 PANSS
